Laboratory results from the NIST ThermoML archive (doi:10.1016/j.jct.2007.08.005).
± gives the expanded uncertainty stated by the source.

Assay: xn = mol fraction of the nth substance listed
Conditions: 308.15 K, 101 kPa, Liquid; for excess molar volume: Direct dilatometry; for speed of sound: Sing-around technique in a fixed-path interferometer

OCCCO [propan-1,3-diol] + O=C1CCCN1
excess molar volume (x1 = 0.0149): 7e-09 ± 5e-09 m3/mol | excess molar volume (x1 = 0.0255): 1e-08 ± 5e-09 m3/mol | excess molar volume (x1 = 0.0582): 1.6e-08 ± 5e-09 m3/mol | excess molar volume (x1 = 0.0669): 1.8e-08 ± 5e-09 m3/mol | excess molar volume (x1 = 0.0811): 1.9e-08 ± 5e-09 m3/mol | excess molar volume (x1 = 0.0944): 1.9e-08 ± 5e-09 m3/mol | excess molar volume (x1 = 0.1161): 2.2e-08 ± 5e-09 m3/mol | excess molar volume (x1 = 0.133): 2.3e-08 ± 5e-09 m3/mol | excess molar volume (x1 = 0.1507): 2.5e-08 ± 5e-09 m3/mol | excess molar volume (x1 = 0.1752): 2.6e-08 ± 5e-09 m3/mol | excess molar volume (x1 = 0.2346): 2.7e-08 ± 5e-09 m3/mol | excess molar volume (x1 = 0.2749): 2.8e-08 ± 5e-09 m3/mol | excess molar volume (x1 = 0.3232): 2.9e-08 ± 5e-09 m3/mol | excess molar volume (x1 = 0.399): 2.8e-08 ± 5e-09 m3/mol | excess molar volume (x1 = 0.4472): 2.5e-08 ± 5e-09 m3/mol | excess molar volume (x1 = 0.4784): 2.5e-08 ± 5e-09 m3/mol | excess molar volume (x1 = 0.4826): 2.4e-08 ± 5e-09 m3/mol | excess molar volume (x1 = 0.4941): 2.4e-08 ± 5e-09 m3/mol | excess molar volume (x1 = 0.518): 2.2e-08 ± 5e-09 m3/mol | excess molar volume (x1 = 0.537): 2.1e-08 ± 5e-09 m3/mol | excess molar volume (x1 = 0.5552): 2.1e-08 ± 5e-09 m3/mol | excess molar volume (x1 = 0.5751): 1.8e-08 ± 5e-09 m3/mol | excess molar volume (x1 = 0.6011): 1.5e-08 ± 5e-09 m3/mol | excess molar volume (x1 = 0.6281): 1.3e-08 ± 5e-09 m3/mol | excess molar volume (x1 = 0.6505): 1e-08 ± 5e-09 m3/mol | excess molar volume (x1 = 0.6707): 9e-09 ± 5e-09 m3/mol | excess molar volume (x1 = 0.6824): 8e-09 ± 5e-09 m3/mol | excess molar volume (x1 = 0.7028): 4e-09 ± 5e-09 m3/mol | excess molar volume (x1 = 0.7232): 1e-09 ± 5e-09 m3/mol | excess molar volume (x1 = 0.746): -2e-09 ± 5e-09 m3/mol | excess molar volume (x1 = 0.7719): -4e-09 ± 5e-09 m3/mol | excess molar volume (x1 = 0.791): -6e-09 ± 5e-09 m3/mol | excess molar volume (x1 = 0.8126): -8e-09 ± 5e-09 m3/mol | excess molar volume (x1 = 0.8237): -1e-08 ± 5e-09 m3/mol | excess molar volume (x1 = 0.8409): -1.3e-08 ± 5e-09 m3/mol | excess molar volume (x1 = 0.853): -1.6e-08 ± 5e-09 m3/mol | excess molar volume (x1 = 0.8712): -1.9e-08 ± 5e-09 m3/mol | excess molar volume (x1 = 0.8823): -2.1e-08 ± 5e-09 m3/mol | excess molar volume (x1 = 0.8935): -2.2e-08 ± 5e-09 m3/mol | excess molar volume (x1 = 0.9116): -2.4e-08 ± 5e-09 m3/mol | excess molar volume (x1 = 0.9269): -2.4e-08 ± 5e-09 m3/mol | excess molar volume (x1 = 0.9355): -2.3e-08 ± 5e-09 m3/mol | excess molar volume (x1 = 0.9476): -2.2e-08 ± 5e-09 m3/mol | excess molar volume (x1 = 0.9599): -2e-08 ± 5e-09 m3/mol | excess molar volume (x1 = 0.9803): -1.4e-08 ± 5e-09 m3/mol | excess molar volume (x1 = 0.9887): -1.2e-08 ± 5e-09 m3/mol | excess molar volume (x1 = 0.9978): -8e-09 ± 5e-09 m3/mol | speed of sound (x1 = 0.0365): 1600.9 ± 1.4 m/s | speed of sound (x1 = 0.059): 1601.4 ± 1.4 m/s | speed of sound (x1 = 0.0794): 1602.1 ± 1.4 m/s | speed of sound (x1 = 0.1005): 1602.7 ± 1.4 m/s | speed of sound (x1 = 0.1451): 1603.5 ± 1.4 m/s | speed of sound (x1 = 0.1944): 1604.5 ± 1.4 m/s | speed of sound (x1 = 0.3004): 1606.2 ± 1.4 m/s | speed of sound (x1 = 0.3994): 1607.4 ± 1.4 m/s | speed of sound (x1 = 0.4902): 1608.2 ± 1.4 m/s | speed of sound (x1 = 0.5828): 1608.7 ± 1.4 m/s | speed of sound (x1 = 0.6833): 1608.8 ± 1.4 m/s | speed of sound (x1 = 0.7889): 1608.3 ± 1.4 m/s | speed of sound (x1 = 0.8265): 1607.7 ± 1.4 m/s | speed of sound (x1 = 0.8909): 1606.7 ± 1.4 m/s | speed of sound (x1 = 0.9186): 1606.4 ± 1.4 m/s | speed of sound (x1 = 0.9422): 1605.8 ± 1.4 m/s | speed of sound (x1 = 0.9712): 1605 ± 1.4 m/s | viscosity (x1 = 0.0365): 9.37 ± 0.18 mPa·s | viscosity (x1 = 0.059): 9.712 ± 0.19 mPa·s | viscosity (x1 = 0.0794): 9.969 ± 0.19 mPa·s | viscosity (x1 = 0.1005): 10.29 ± 0.2 mPa·s | viscosity (x1 = 0.1452): 10.9 ± 0.21 mPa·s | viscosity (x1 = 0.1944): 11.58 ± 0.22 mPa·s | viscosity (x1 = 0.3005): 13.29 ± 0.25 mPa·s | viscosity (x1 = 0.3994): 15.04 ± 0.28 mPa·s | viscosity (x1 = 0.4902): 16.76 ± 0.3 mPa·s | viscosity (x1 = 0.5828): 18.38 ± 0.33 mPa·s | viscosity (x1 = 0.6833): 20.23 ± 0.36 mPa·s | viscosity (x1 = 0.7889): 22.45 ± 0.4 mPa·s | viscosity (x1 = 0.8265): 23.24 ± 0.41 mPa·s | viscosity (x1 = 0.8909): 24.43 ± 0.43 mPa·s | viscosity (x1 = 0.9186): 24.98 ± 0.44 mPa·s | viscosity (x1 = 0.9422): 25.52 ± 0.45 mPa·s | viscosity (x1 = 0.9712): 26.02 ± 0.46 mPa·s

O=C1CCCN1 [2-pyrrolidinone] + OCCO
excess molar volume (x2 = 0.0118): 4e-09 ± 5e-09 m3/mol | excess molar volume (x2 = 0.0271): 1.1e-08 ± 5e-09 m3/mol | excess molar volume (x2 = 0.0551): 2.1e-08 ± 5e-09 m3/mol | excess molar volume (x2 = 0.0711): 2.4e-08 ± 5e-09 m3/mol | excess molar volume (x2 = 0.0891): 3.3e-08 ± 5e-09 m3/mol | excess molar volume (x2 = 0.1123): 3.6e-08 ± 5e-09 m3/mol | excess molar volume (x2 = 0.1356): 4.4e-08 ± 5e-09 m3/mol | excess molar volume (x2 = 0.1467): 5e-08 ± 5e-09 m3/mol | excess molar volume (x2 = 0.1671): 5.6e-08 ± 5e-09 m3/mol | excess molar volume (x2 = 0.1927): 6e-08 ± 5e-09 m3/mol | excess molar volume (x2 = 0.2287): 6.9e-08 ± 5e-09 m3/mol | excess molar volume (x2 = 0.2682): 8.3e-08 ± 5e-09 m3/mol | excess molar volume (x2 = 0.3038): 9.4e-08 ± 5e-09 m3/mol | excess molar volume (x2 = 0.3336): 1.01e-07 ± 5e-09 m3/mol | excess molar volume (x2 = 0.4018): 1.12e-07 ± 5e-09 m3/mol | excess molar volume (x2 = 0.4305): 1.16e-07 ± 5e-09 m3/mol | excess molar volume (x2 = 0.4785): 1.21e-07 ± 5e-09 m3/mol | excess molar volume (x2 = 0.4965): 1.22e-07 ± 5e-09 m3/mol | excess molar volume (x2 = 0.5172): 1.22e-07 ± 5e-09 m3/mol | excess molar volume (x2 = 0.543): 1.23e-07 ± 5e-09 m3/mol | excess molar volume (x2 = 0.5614): 1.22e-07 ± 5e-09 m3/mol | excess molar volume (x2 = 0.607): 1.2e-07 ± 5e-09 m3/mol | excess molar volume (x2 = 0.623): 1.19e-07 ± 5e-09 m3/mol | excess molar volume (x2 = 0.6414): 1.17e-07 ± 5e-09 m3/mol | excess molar volume (x2 = 0.6694): 1.15e-07 ± 5e-09 m3/mol | excess molar volume (x2 = 0.6896): 1.11e-07 ± 5e-09 m3/mol | excess molar volume (x2 = 0.7154): 1.08e-07 ± 5e-09 m3/mol | excess molar volume (x2 = 0.7437): 1.02e-07 ± 5e-09 m3/mol | excess molar volume (x2 = 0.7579): 1e-07 ± 5e-09 m3/mol | excess molar volume (x2 = 0.7775): 9.6e-08 ± 5e-09 m3/mol | excess molar volume (x2 = 0.8278): 8.7e-08 ± 5e-09 m3/mol | excess molar volume (x2 = 0.8424): 8.4e-08 ± 5e-09 m3/mol | excess molar volume (x2 = 0.8713): 7.5e-08 ± 5e-09 m3/mol | excess molar volume (x2 = 0.8846): 7e-08 ± 5e-09 m3/mol | excess molar volume (x2 = 0.8963): 6.6e-08 ± 5e-09 m3/mol | excess molar volume (x2 = 0.9107): 5.9e-08 ± 5e-09 m3/mol | excess molar volume (x2 = 0.9249): 5.2e-08 ± 5e-09 m3/mol | excess molar volume (x2 = 0.9349): 4.4e-08 ± 5e-09 m3/mol | excess molar volume (x2 = 0.9544): 3.6e-08 ± 5e-09 m3/mol | excess molar volume (x2 = 0.961): 2.7e-08 ± 5e-09 m3/mol | excess molar volume (x2 = 0.9747): 1.8e-08 ± 5e-09 m3/mol | excess molar volume (x2 = 0.9869): 1.2e-08 ± 5e-09 m3/mol | excess molar volume (x2 = 0.9976): 4e-09 ± 5e-09 m3/mol | speed of sound (x2 = 0.0351): 1600.6 ± 1.4 m/s | speed of sound (x2 = 0.0613): 1601.1 ± 1.3 m/s | speed of sound (x2 = 0.0816): 1601.4 ± 1.3 m/s | speed of sound (x2 = 0.1155): 1601.9 ± 1.3 m/s | speed of sound (x2 = 0.1641): 1602.4 ± 1.3 m/s | speed of sound (x2 = 0.2134): 1602.9 ± 1.3 m/s | speed of sound (x2 = 0.3111): 1604.5 ± 1.2 m/s | speed of sound (x2 = 0.3866): 1605.8 ± 1.2 m/s | speed of sound (x2 = 0.5068): 1607.7 ± 1.2 m/s | speed of sound (x2 = 0.6039): 1610 ± 1.2 m/s | speed of sound (x2 = 0.7046): 1613.5 ± 1.1 m/s | speed of sound (x2 = 0.8015): 1617.8 ± 1.1 m/s | speed of sound (x2 = 0.8495): 1620.3 ± 1.1 m/s | speed of sound (x2 = 0.8974): 1624.1 ± 1.1 m/s | speed of sound (x2 = 0.9233): 1626 ± 1.1 m/s | speed of sound (x2 = 0.9458): 1627.7 ± 1.1 m/s | speed of sound (x2 = 0.9731): 1631 ± 1.1 m/s | viscosity (x2 = 0.0351): 8.955 ± 0.17 mPa·s | viscosity (x2 = 0.0613): 9.037 ± 0.18 mPa·s | viscosity (x2 = 0.0816): 9.118 ± 0.18 mPa·s | viscosity (x2 = 0.1155): 9.255 ± 0.18 mPa·s | viscosity (x2 = 0.1641): 9.302 ± 0.18 mPa·s | viscosity (x2 = 0.2134): 9.358 ± 0.18 mPa·s | viscosity (x2 = 0.3111): 9.487 ± 0.18 mPa·s | viscosity (x2 = 0.3866): 9.654 ± 0.18 mPa·s | viscosity (x2 = 0.5068): 9.833 ± 0.19 mPa·s | viscosity (x2 = 0.6039): 9.963 ± 0.19 mPa·s | viscosity (x2 = 0.7046): 10.04 ± 0.19 mPa·s | viscosity (x2 = 0.8015): 10.29 ± 0.19 mPa·s | viscosity (x2 = 0.8495): 10.5 ± 0.2 mPa·s | viscosity (x2 = 0.8974): 10.75 ± 0.2 mPa·s | viscosity (x2 = 0.9233): 10.83 ± 0.2 mPa·s | viscosity (x2 = 0.9458): 11.05 ± 0.2 mPa·s | viscosity (x2 = 0.9731): 11.14 ± 0.21 mPa·s
